Results as given in ChEMBL document CHEMBL3991601, “The target landscape of clinical kinase drugs” (Science, 2017).
Activity calls are given as the source filed them. For most assays here, no stated cut-off is given here; in the data, actives have a measured Kd and inactives only a lower limit.

What was measured:
Pyridoxal kinase = target: T1, Pyridoxal kinase (Homo sapiens, UniProt O00764)
T1 sequence (O00764 whole entry): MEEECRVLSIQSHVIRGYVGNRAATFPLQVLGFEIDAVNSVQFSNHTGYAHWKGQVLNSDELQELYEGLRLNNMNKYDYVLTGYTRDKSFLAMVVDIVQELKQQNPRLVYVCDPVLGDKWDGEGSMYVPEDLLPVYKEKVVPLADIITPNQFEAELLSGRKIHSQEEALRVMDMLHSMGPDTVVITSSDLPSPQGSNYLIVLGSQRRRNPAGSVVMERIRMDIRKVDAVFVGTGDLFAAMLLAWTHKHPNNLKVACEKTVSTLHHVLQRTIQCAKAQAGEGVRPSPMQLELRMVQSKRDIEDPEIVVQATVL

[1] = target: Structural maintenance of chromosomes protein 2 (Homo sapiens, UniProt O95347)
Structural maintenance of chromosomes protein 2, sequence (O95347 whole entry): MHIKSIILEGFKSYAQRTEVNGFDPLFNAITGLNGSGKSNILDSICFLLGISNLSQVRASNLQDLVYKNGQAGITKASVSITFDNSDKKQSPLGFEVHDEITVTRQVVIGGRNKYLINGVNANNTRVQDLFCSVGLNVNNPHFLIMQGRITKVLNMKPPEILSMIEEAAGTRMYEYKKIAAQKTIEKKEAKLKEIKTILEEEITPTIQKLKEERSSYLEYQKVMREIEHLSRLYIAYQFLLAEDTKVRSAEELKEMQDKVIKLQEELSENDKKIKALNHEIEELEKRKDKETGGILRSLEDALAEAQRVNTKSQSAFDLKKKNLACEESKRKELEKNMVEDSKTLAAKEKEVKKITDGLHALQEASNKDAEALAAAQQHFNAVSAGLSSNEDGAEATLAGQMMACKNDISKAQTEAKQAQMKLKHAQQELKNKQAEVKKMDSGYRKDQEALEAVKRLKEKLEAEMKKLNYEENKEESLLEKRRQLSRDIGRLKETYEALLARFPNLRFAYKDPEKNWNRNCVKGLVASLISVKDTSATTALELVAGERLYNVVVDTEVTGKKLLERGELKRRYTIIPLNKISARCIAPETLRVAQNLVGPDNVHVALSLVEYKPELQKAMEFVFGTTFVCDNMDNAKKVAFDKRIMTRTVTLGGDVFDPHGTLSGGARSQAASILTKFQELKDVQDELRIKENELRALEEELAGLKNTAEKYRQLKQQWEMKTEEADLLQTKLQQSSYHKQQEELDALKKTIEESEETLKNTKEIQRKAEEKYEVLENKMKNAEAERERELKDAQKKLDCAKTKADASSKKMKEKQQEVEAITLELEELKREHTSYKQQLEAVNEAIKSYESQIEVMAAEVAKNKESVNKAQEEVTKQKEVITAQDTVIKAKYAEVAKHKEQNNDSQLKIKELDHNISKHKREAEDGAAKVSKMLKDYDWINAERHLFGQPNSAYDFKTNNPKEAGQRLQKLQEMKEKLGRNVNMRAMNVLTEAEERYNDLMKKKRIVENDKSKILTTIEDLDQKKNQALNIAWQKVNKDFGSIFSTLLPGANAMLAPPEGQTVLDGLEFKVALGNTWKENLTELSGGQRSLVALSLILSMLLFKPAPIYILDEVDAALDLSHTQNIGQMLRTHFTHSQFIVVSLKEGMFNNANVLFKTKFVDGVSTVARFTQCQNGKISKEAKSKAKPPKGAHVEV

[2] = target: Mitogen-activated protein kinase kinase kinase 1 (Homo sapiens, UniProt Q13233)
Mitogen-activated protein kinase kinase kinase 1, sequence (Q13233 whole entry): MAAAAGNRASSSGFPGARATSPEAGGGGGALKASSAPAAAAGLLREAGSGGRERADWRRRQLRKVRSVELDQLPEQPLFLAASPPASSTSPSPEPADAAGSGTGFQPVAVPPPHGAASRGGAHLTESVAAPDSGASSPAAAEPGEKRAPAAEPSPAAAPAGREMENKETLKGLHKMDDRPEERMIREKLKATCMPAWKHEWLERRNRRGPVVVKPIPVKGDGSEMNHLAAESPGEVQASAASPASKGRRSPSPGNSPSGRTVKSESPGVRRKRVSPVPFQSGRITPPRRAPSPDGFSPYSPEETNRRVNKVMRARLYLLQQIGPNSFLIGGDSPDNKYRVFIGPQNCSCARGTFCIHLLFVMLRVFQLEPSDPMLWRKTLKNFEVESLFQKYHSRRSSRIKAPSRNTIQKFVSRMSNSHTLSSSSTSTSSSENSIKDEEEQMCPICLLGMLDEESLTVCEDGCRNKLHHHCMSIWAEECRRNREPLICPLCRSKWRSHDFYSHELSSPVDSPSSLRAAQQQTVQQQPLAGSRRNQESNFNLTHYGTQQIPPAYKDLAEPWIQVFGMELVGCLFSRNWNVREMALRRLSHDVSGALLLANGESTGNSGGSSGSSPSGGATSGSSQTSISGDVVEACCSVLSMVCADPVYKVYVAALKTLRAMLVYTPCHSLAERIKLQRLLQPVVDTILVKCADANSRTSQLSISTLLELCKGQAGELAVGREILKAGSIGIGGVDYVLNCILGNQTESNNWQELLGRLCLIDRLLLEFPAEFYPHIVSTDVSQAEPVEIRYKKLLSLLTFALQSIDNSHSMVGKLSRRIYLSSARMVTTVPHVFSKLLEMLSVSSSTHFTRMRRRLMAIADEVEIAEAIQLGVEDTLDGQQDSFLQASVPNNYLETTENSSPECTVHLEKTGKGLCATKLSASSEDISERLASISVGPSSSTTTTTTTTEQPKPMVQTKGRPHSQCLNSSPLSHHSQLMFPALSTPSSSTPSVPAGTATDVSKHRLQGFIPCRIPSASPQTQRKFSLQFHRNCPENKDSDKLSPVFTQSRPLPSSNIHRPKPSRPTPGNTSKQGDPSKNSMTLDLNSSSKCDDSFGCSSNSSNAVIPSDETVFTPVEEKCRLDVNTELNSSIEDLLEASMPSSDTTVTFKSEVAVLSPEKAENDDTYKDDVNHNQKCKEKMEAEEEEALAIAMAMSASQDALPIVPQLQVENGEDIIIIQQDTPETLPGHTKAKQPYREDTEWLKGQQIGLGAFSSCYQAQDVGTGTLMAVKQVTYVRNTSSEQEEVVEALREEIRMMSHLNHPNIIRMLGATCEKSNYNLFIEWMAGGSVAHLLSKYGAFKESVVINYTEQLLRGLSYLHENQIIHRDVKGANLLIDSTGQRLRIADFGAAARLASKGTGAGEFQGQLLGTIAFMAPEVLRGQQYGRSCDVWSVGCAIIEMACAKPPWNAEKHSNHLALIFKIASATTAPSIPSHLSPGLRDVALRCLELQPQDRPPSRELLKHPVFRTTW

[3] = target: Serine/threonine-protein kinase MRCK beta (Homo sapiens, UniProt Q9Y5S2)
Serine/threonine-protein kinase MRCK beta, sequence (Q9Y5S2 whole entry): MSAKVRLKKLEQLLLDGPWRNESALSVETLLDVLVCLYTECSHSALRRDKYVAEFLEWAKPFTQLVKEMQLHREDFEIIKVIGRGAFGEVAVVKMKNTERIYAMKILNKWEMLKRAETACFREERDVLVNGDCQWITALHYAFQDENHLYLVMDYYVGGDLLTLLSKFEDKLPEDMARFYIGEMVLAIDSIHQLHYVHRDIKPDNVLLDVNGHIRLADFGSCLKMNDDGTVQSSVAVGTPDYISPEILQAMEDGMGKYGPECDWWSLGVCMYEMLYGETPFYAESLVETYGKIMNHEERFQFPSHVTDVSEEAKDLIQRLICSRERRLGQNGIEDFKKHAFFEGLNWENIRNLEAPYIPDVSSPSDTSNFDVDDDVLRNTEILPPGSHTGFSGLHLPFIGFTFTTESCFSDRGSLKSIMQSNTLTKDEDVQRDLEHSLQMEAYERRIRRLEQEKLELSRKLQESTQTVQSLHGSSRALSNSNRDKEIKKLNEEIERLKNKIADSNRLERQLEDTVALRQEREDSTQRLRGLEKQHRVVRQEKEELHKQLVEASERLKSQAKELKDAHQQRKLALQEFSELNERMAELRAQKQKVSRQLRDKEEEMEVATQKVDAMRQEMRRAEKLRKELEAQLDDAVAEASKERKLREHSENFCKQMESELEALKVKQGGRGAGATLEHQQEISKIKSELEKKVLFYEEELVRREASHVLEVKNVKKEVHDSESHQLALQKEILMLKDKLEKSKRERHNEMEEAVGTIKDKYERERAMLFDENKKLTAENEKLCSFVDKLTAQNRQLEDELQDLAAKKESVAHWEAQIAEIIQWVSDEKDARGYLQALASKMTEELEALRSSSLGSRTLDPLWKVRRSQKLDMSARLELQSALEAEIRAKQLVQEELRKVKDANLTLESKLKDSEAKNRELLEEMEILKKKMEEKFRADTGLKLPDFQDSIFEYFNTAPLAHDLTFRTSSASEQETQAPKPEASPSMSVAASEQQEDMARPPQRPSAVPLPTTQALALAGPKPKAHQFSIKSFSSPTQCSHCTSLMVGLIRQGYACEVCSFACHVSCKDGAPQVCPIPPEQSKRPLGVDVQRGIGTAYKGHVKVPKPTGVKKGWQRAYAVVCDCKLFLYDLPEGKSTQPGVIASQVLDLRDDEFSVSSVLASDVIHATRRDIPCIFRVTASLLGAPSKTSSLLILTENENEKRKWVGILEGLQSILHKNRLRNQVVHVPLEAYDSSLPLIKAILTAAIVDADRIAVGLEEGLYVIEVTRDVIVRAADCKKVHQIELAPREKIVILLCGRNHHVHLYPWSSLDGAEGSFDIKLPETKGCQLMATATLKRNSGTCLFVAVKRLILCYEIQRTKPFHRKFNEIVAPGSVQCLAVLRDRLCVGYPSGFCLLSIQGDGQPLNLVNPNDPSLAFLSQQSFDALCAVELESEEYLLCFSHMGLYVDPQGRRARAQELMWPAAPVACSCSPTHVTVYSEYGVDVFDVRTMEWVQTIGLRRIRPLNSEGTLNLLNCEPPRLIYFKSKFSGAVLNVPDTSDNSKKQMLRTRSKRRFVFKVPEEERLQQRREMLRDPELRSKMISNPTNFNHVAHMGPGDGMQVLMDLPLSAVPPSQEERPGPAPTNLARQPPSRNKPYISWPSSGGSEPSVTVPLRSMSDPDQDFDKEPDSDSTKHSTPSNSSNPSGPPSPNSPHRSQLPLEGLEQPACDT

[4] = target: T2, Dual specificity mitogen-activated protein kinase kinase 3 (Homo sapiens, UniProt P46734)
T2 sequence (P46734 whole entry): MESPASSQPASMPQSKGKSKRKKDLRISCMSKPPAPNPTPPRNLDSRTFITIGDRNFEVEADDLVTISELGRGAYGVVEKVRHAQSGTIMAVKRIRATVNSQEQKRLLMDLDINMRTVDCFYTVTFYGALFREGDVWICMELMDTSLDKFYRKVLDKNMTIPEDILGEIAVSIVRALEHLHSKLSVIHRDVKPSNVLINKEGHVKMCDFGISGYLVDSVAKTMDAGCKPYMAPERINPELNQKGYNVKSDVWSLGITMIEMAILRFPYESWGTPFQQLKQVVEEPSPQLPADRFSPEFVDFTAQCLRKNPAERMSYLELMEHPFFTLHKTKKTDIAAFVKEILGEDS

[5] = target: T3, Serine/threonine-protein kinase LATS1 (Homo sapiens, UniProt O95835)
T3 sequence (O95835 whole entry): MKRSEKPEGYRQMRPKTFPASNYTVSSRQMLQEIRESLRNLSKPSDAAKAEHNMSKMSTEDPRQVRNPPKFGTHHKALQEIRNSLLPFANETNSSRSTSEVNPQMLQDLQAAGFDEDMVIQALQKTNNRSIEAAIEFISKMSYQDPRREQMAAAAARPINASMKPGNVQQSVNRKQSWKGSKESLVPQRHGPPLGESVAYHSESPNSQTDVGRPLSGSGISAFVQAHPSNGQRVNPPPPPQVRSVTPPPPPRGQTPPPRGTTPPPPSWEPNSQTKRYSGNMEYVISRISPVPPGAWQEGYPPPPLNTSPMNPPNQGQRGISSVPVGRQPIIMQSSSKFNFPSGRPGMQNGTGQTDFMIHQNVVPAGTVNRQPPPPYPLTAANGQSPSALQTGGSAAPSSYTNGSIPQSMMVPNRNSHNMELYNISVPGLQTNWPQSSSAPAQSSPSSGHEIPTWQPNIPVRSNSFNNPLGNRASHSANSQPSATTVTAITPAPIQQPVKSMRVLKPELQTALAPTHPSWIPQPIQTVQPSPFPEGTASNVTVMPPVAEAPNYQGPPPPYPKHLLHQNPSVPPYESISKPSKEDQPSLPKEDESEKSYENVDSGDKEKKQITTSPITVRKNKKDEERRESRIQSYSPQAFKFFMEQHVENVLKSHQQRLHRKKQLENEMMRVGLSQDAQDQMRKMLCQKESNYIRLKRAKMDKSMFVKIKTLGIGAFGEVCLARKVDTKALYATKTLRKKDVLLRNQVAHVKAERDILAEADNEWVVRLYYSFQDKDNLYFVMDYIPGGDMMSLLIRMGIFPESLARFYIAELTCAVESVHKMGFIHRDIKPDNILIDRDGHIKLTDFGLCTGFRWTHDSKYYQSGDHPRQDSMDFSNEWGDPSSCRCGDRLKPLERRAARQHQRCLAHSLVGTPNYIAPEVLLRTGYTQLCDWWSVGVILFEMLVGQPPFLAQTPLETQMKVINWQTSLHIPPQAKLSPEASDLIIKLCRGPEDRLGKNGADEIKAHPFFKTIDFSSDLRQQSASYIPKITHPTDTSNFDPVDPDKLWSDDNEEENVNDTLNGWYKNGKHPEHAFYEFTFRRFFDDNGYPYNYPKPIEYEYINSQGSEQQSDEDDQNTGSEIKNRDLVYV

[6] = target: Serine/threonine-protein kinase 10 (Homo sapiens, UniProt O94804)
[7] = target: Bone morphogenetic protein receptor type-1B (Homo sapiens, UniProt O00238)
[8] = target: T4, Mitogen-activated protein kinase kinase kinase 3 (Homo sapiens, UniProt Q99759)
T4 sequence (Q99759 whole entry): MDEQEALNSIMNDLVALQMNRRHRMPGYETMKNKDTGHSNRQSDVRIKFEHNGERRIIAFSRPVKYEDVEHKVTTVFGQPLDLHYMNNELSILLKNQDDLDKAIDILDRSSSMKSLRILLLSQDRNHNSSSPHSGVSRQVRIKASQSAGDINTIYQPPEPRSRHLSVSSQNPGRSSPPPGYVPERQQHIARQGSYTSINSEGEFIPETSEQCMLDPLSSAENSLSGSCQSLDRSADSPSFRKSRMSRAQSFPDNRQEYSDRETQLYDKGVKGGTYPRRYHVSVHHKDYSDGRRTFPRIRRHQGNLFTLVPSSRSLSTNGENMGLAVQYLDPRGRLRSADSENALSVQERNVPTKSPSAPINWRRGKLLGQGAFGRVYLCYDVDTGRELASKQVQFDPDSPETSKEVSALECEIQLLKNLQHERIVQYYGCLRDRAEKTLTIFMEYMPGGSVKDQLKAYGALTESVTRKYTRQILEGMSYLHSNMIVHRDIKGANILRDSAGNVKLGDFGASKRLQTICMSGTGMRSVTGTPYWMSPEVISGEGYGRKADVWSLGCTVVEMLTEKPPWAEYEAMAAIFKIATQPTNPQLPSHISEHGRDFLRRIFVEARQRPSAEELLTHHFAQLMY

[9] = target: Mitogen-activated protein kinase kinase kinase 4 (Homo sapiens, UniProt Q9Y6R4)
[10] = target: Dual specificity mitogen-activated protein kinase kinase 2 (Homo sapiens, UniProt P36507)
[11] = target: 5'-AMP-activated protein kinase catalytic subunit alpha-1 (Homo sapiens, UniProt Q13131)
5'-AMP-activated protein kinase catalytic subunit alpha-1, sequence (Q13131 whole entry): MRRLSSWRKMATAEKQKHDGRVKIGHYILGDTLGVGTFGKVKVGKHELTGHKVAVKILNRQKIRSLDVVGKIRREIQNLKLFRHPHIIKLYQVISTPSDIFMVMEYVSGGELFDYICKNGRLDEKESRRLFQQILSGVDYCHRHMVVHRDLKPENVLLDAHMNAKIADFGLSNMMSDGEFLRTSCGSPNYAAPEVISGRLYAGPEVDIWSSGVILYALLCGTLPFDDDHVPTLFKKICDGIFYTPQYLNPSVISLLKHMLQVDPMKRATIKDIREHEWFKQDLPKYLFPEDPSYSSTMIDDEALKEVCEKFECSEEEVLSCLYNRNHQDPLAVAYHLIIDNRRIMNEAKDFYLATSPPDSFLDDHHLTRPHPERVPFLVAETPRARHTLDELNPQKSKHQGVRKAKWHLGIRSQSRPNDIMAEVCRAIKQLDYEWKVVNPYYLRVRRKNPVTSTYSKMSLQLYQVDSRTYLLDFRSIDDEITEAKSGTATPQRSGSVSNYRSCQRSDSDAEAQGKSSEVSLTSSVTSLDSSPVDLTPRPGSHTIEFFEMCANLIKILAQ

[12] = target: Mitogen-activated protein kinase kinase kinase kinase 4 (Homo sapiens, UniProt O95819)

Row | Kd (Pyridoxal kinase) | Kd [1] | Kd [12] | Compound | Kd [2] | Kd [3] | Kd [4] | Kd [5] | Kd [6] | Kd [7] | Kd [8] | Kd [9] | Kd [10] | Kd [11]
1 | > 30 µM (inactive) | > 30 µM (inactive) |  | Cn1c(=O)n(-c2ccc(C(C)(C)C#N)cc2)c2c3cc(-c4cnc5ccccc5c4)ccc3ncc21 [DACTOLISIB] | > 30 µM (inactive) | > 30 µM (inactive) | > 30 µM (inactive) |  | > 30 µM (inactive) |  | > 30 µM (inactive) | > 30 µM (inactive) |  | 
2 | > 30 µM (inactive) | > 30 µM (inactive) |  | COc1cc2c(Oc3ccc4[nH]c(C)cc4c3F)ncnc2cc1OCCCN1CCCC1 [CEDIRANIB] |  |  |  |  |  |  |  |  |  | 
3 | > 30 µM (inactive) | > 30 µM (inactive) |  | COc1cc2c(N3CCN(C(=O)Nc4ccc(OC(C)C)cc4)CC3)ncnc2cc1OCCCN1CCCCC1 [TANDUTINIB] |  |  |  |  |  |  |  |  |  | 
4 | > 30 µM (inactive) | 0.209 µM |  | Cn1cnc2c(F)c(Nc3ccc(Br)cc3Cl)c(C(=O)NOCCO)cc21 [SELUMETINIB] |  |  |  |  |  |  |  |  |  | 
5 | > 30 µM (inactive) | > 30 µM (inactive) | > 30 µM (inactive) | O=C(NOC[C@H](O)CO)c1ccc(F)c(F)c1Nc1ccc(I)cc1F [MIRDAMETINIB] | > 30 µM (inactive) | > 30 µM (inactive) | > 30 µM (inactive) |  | > 30 µM (inactive) | > 30 µM (inactive) | > 30 µM (inactive) | > 30 µM (inactive) |  | > 30 µM (inactive)
6 | > 30 µM (inactive) | > 30 µM (inactive) |  | C[C@@]1(C(=O)Nc2ccc(F)nc2)CCCN1c1nc(Nc2cc(C3CC3)n[nH]2)c2cccn2n1 [BMS-754807] |  |  |  |  |  |  |  |  |  | 
7 | > 30 µM (inactive) | > 30 µM (inactive) |  | CC1(C)CNc2cc(NC(=O)c3cccnc3NCc3ccncc3)ccc21 [MOTESANIB] |  |  |  |  |  |  |  |  |  | 
8 | > 30 µM (inactive) | > 30 µM (inactive) | > 30 µM (inactive) | CC(C)(O)CC(=O)NCCn1ccc2ncnc(Nc3ccc(Oc4cccc(C(F)(F)F)c4)c(Cl)c3)c21 [TAK-285] | > 30 µM (inactive) | > 30 µM (inactive) | > 30 µM (inactive) | > 30 µM (inactive) | > 30 µM (inactive) | 1.63 µM | > 30 µM (inactive) | > 30 µM (inactive) |  | > 30 µM (inactive)
9 | > 30 µM (inactive) | > 30 µM (inactive) |  | CCN(CCCOc1ccc2c(Nc3cc(CC(=O)Nc4cccc(F)c4)n[nH]3)ncnc2c1)CCOP(=O)(O)O [BARASERTIB] | > 30 µM (inactive) | > 30 µM (inactive) | > 30 µM (inactive) | > 30 µM (inactive) | > 30 µM (inactive) | > 30 µM (inactive) | > 30 µM (inactive) | > 30 µM (inactive) |  | 

The remaining lines, values behind:

Row | Compound | Kd (Pyridoxal kinase) | Kd [1] | Kd [12] | Kd [2] | Kd [3] | Kd [4] | Kd [5] | Kd [6] | Kd [7] | Kd [8] | Kd [9] | Kd [10] | Kd [11]
10 | CN(c1ncccc1CNc1nc(Nc2ccc3c(c2)CC(=O)N3)ncc1C(F)(F)F)S(C)(=O)=O [PF-00562271] | > 30 µM (inactive) | > 30 µM (inactive) |  | > 30 µM (inactive) | > 30 µM (inactive) | > 30 µM (inactive) | > 30 µM (inactive) | > 30 µM (inactive) | > 30 µM (inactive) | > 30 µM (inactive) | > 30 µM (inactive) |  | 
11 | C[C@]1(O)C[C@@H](c2nc(-c3ccc4ccc(-c5ccccc5)nc4c3)c3c(N)nccn32)C1 [LINSITINIB] | > 30 µM (inactive) | > 30 µM (inactive) |  | > 30 µM (inactive) | > 30 µM (inactive) | > 30 µM (inactive) |  | > 30 µM (inactive) | > 30 µM (inactive) | > 30 µM (inactive) | > 30 µM (inactive) | 1.14 µM (active) | 
12 | CN1CCN(c2nc(C3=C(c4c[nH]c5ccccc45)C(=O)NC3=O)c3ccccc3n2)CC1 [SOTRASTAURIN] | > 30 µM (inactive) | > 30 µM (inactive) |  | > 30 µM (inactive) | > 30 µM (inactive) | > 30 µM (inactive) | > 30 µM (inactive) | > 30 µM (inactive) | > 30 µM (inactive) | > 30 µM (inactive) | > 30 µM (inactive) | > 30 µM (inactive) | > 30 µM (inactive)
13 | C=CCn1c(=O)c2cnc(Nc3ccc(N4CCN(C)CC4)cc3)nc2n1-c1cccc(C(C)(C)O)n1 [ADAVOSERTIB] | > 30 µM (inactive) | > 30 µM (inactive) |  | > 30 µM (inactive) | > 30 µM (inactive) | > 30 µM (inactive) | > 30 µM (inactive) | > 30 µM (inactive) | > 30 µM (inactive) | > 30 µM (inactive) | 0.052 µM (active) |  | 
14 | CN(C)C/C=C/C(=O)Nc1cc2c(Nc3ccc(F)c(Cl)c3)ncnc2cc1O[C@H]1CCOC1 [AFATINIB] | > 30 µM (inactive) | > 30 µM (inactive) |  |  |  |  |  |  |  |  |  |  | 
15 | N#CCNC(=O)c1ccc(-c2ccnc(Nc3ccc(N4CCOCC4)cc3)n2)cc1 [MOMELOTINIB] | > 30 µM (inactive) | > 30 µM (inactive) |  | > 30 µM (inactive) |  | > 30 µM (inactive) |  |  | > 30 µM (inactive) | > 30 µM (inactive) | > 30 µM (inactive) |  | > 30 µM (inactive)
16 | CCOc1ccn(-c2ccc(F)cc2)c(=O)c1C(=O)Nc1ccc(Oc2ccnc(N)c2Cl)c(F)c1 [BMS-777607] | > 30 µM (inactive) | > 30 µM (inactive) |  | > 30 µM (inactive) | > 30 µM (inactive) |  | > 30 µM (inactive) | > 30 µM (inactive) | > 30 µM (inactive) | > 30 µM (inactive) | > 30 µM (inactive) | > 30 µM (inactive) | 
17 | O=S(=O)(c1cccc2cnccc12)N1CCCNCC1 [FASUDIL] | > 30 µM (inactive) | > 30 µM (inactive) |  | > 30 µM (inactive) | > 30 µM (inactive) | > 30 µM (inactive) |  | > 30 µM (inactive) |  | > 30 µM (inactive) | > 30 µM (inactive) |  | 
